Read-outs that look alike come from different tables or passages of the source.
System: Pseudomonas aeruginosa
Assay: MIC by agar dilution against 61 strains of Pseudomonas aeruginosa, secondary evaluation
Format: cell-based
Settings: for Mean % Relative Activity (SPBC = 100%): P. aerug. (61 strains); for MIC: Pseudomonas aeruginosa
Method in brief: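 Compounds were diluted two-fold serially into Mueller-Hinton agar, then organisms were applied using Steers' apparatus and MICs read. The primary panel comprised 31 test organisms, and the secondary evaluation 61 strains of P. aeruginosa.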

## NC(=O)OCC1=C(C(=O)O)N2C(=O)C(NC(=O)[C@H](NC(=O)c3cnc4cccnc4c3O)c3ccccc3)[C@H]2SC1 (stereo partly drawn) [BB-S520, Sodium 7-[D-α-(4-hydroxy-1,5-naphthyridine-3-carboxamido)-α-phenylacetamido]-3-carbamoyloxymethyl-3-cephem-4-carboxylate]
61 strains of Pseudomonas aeruginosa, Table 7
  Rel. Act. (SBPC=100%): 1016%
Lot 1, Table 5
  Mean % Relative Activity (SPBC = 100%): 714%
Lot 2, Table 5
  Mean % Relative Activity (SPBC = 100%): 1016%
Ps. aeruginosa (61 strains), from geometric means of MICs in Table 2
  Mean % Relative Activity (Sulbenicillin = 100%): 714%
61 strains of Pseudomonas aeruginosa, Table 7, read-out: Geometric Mean of MIC
  MIC: 2.4 µg/mL
BBRI Pa-No. 1, D15, Table 2, read-out: MIC
  MIC: 12.5 µg/mL
BBRI Pa-No. 1, D15, Table 7, read-out: MIC
  MIC: 6.3 µg/mL
BBRI Pa-No. 2, VA, Table 2, read-out: MIC
  MIC: 3.1 µg/mL
BBRI Pa-No. 2, VA, Table 7, read-out: MIC
  MIC: 3.1 µg/mL
BBRI Pa-No. 3, 1449VA, Table 2, read-out: MIC
  MIC: 1.6 µg/mL
BBRI Pa-No. 3, 1449VA, Table 7, read-out: MIC
  MIC: 0.8 µg/mL
BBRI Pa-No. 4, H9 D113, Table 2, read-out: MIC
  MIC: 12.5 µg/mL
BBRI Pa-No. 4, H9 D113, Table 7, read-out: MIC
  MIC: 1.6 µg/mL
BBRI Pa-No. 5, M4865KC, Table 2, read-out: MIC
  MIC: 3.1 µg/mL
BBRI Pa-No. 5, N4865KC, Table 7, read-out: MIC
  MIC: 0.8 µg/mL
BBRI Pa-No. 6, No. 5, Table 2, read-out: MIC
  MIC: 25 µg/mL
BBRI Pa-No. 6, No. 5, Table 7, read-out: MIC
  MIC: 12.5 µg/mL
BBRI Pa-No. 7, Table 2, read-out: MIC
  MIC: 6.3 µg/mL
BBRI Pa-No. 7, Table 7, read-out: MIC
  MIC: 3.1 µg/mL
BBRI Pa-No. 8, Table 2, read-out: MIC
  MIC: 3.1 µg/mL
BBRI Pa-No. 8, Table 7, read-out: MIC
  MIC: 3.1 µg/mL
BBRI Pa-No. 9, Yale, Table 2, read-out: MIC
  MIC: 3.1 µg/mL
BBRI Pa-No. 9, Yale, Table 7, read-out: MIC
  MIC: 1.6 µg/mL
BBRI Pa-No. 10, Table 2, read-out: MIC
  MIC: 50 µg/mL
BBRI Pa-No. 10, Table 7, read-out: MIC
  MIC: 25 µg/mL
BBRI Pa-No. 11, Table 2, read-out: MIC
  MIC: 3.1 µg/mL
BBRI Pa-No. 11, Table 7, read-out: MIC
  MIC: 3.1 µg/mL
BBRI Pa-No. 12, Table 2, read-out: MIC
  MIC: 6.3 µg/mL
BBRI Pa-No. 12, Table 7, read-out: MIC
  MIC: 3.1 µg/mL
BBRI Pa-No. 14, Table 2, read-out: MIC
  MIC: 3.1 µg/mL
BBRI Pa-No. 14, Table 7, read-out: MIC
  MIC: 0.8 µg/mL
BBRI Pa-No. 15, Table 2, read-out: MIC
  MIC: 12.5 µg/mL
BBRI Pa-No. 15, Table 7, read-out: MIC
  MIC: 6.3 µg/mL
BBRI Pa-No. 16, No. 130, Table 2, read-out: MIC
  MIC: 0.8 µg/mL
BBRI Pa-No. 16, No. 130, Table 7, read-out: MIC
  MIC: 0.4 µg/mL
BBRI Pa-No. 17, H6 D114, Table 2, read-out: MIC
  MIC: 6.3 µg/mL
BBRI Pa-No. 17, H6 D114, Table 7, read-out: MIC
  MIC: 3.1 µg/mL
BBRI Pa-No. 18, H8 D121, Table 2, read-out: MIC
  MIC: 6.3 µg/mL
BBRI Pa-No. 18, H8 D121, Table 7, read-out: MIC
  MIC: 1.6 µg/mL
BBRI Pa-No. 19, Table 2, read-out: MIC
  MIC: 1.6 µg/mL
BBRI Pa-No. 19, Table 7, read-out: MIC
  MIC: 0.8 µg/mL
BBRI Pa-No. 20, Table 2, read-out: MIC
  MIC: 3.1 µg/mL
BBRI Pa-No. 20, Table 7, read-out: MIC
  MIC: 3.1 µg/mL
BBRI Pa-No. 21, Table 2, read-out: MIC
  MIC: 3.1 µg/mL
BBRI Pa-No. 21, Table 7, read-out: MIC
  MIC: 3.1 µg/mL
BBRI Pa-No. 23, Table 2, read-out: MIC
  MIC: 6.3 µg/mL
BBRI Pa-No. 23, Table 7, read-out: MIC
  MIC: 1.6 µg/mL
BBRI Pa-No. 24, Table 2, read-out: MIC
  MIC: 50 µg/mL
BBRI Pa-No. 24, Table 7, read-out: MIC
  MIC: 25 µg/mL
BBRI Pa-No. 25, Table 2, read-out: MIC
  MIC: 1.6 µg/mL
BBRI Pa-No. 25, Table 7, read-out: MIC
  MIC: 0.8 µg/mL
BBRI Pa-No. 26, Ps32, Table 2, read-out: MIC
  MIC: 3.1 µg/mL
BBRI Pa-No. 26, Ps32, Table 7, read-out: MIC
  MIC: 6.3 µg/mL
BBRI Pa-No. 28, CPH1C527/72, Table 7, read-out: MIC
  MIC: 3.1 µg/mL
BBRI Pa-No. 28, CPH10527/72, Table 2, read-out: MIC
  MIC: 6.3 µg/mL
BBRI Pa-No. 29, D122, Table 2, read-out: MIC
  MIC: 1.6 µg/mL
BBRI Pa-No. 29, D122, Table 7, read-out: MIC
  MIC: 1.6 µg/mL
BBRI Pa-No. 30, Table 2, read-out: MIC
  MIC: 3.1 µg/mL
BBRI Pa-No. 30, Table 7, read-out: MIC
  MIC: 1.6 µg/mL
BBRI Pa-No. 31, Table 2, read-out: MIC
  MIC: 1.6 µg/mL
BBRI Pa-No. 31, Table 7, read-out: MIC
  MIC: 0.8 µg/mL
BBRI Pa-No. 32, Table 2, read-out: MIC
  MIC: 3.1 µg/mL
BBRI Pa-No. 32, Table 7, read-out: MIC
  MIC: 1.6 µg/mL
BBRI Pa-No. 33, Table 2, read-out: MIC
  MIC: 12.5 µg/mL
BBRI Pa-No. 33, Table 7, read-out: MIC
  MIC: 1.6 µg/mL
BBRI Pa-No. 34, Table 2, read-out: MIC
  MIC: 3.1 µg/mL
BBRI Pa-No. 34, Table 7, read-out: MIC
  MIC: 1.6 µg/mL
BBRI Pa-No. 35, Table 2, read-out: MIC
  MIC: 12.5 µg/mL
BBRI Pa-No. 35, Table 7, read-out: MIC
  MIC: 6.3 µg/mL
BBRI Pa-No. 36, Table 2, read-out: MIC
  MIC: 0.4 µg/mL
BBRI Pa-No. 36, Table 7, read-out: MIC
  MIC: < 0.2 µg/mL
BBRI Pa-No. 37, Table 2, read-out: MIC
  MIC: 3.1 µg/mL
BBRI Pa-No. 37, Table 7, read-out: MIC
  MIC: 3.1 µg/mL
BBRI Pa-No. 38, Table 2, read-out: MIC
  MIC: 6.3 µg/mL

From patent US4138554A, “7-[D-α-(4-Hydroxy-1,5-naphthyridine-3-carboxamido)-α-phenyl (and p-hydroxyphenyl)acetamido]-3-carbamoyloxymethyl-3-cephem-4-carboxylic acids” (priority 1977, dated 1979)
